Peptide text beside a SMILES is read from it.

Test system in one series: not listed separately
As to the kind of experiment: Evaluation of melting/dissolution (Example A): melting of auxiliary raw material and dissolution of Reb. D in the melt.
Details: not given
As to the method: The meltability of a raw material to be combined with Reb. D (hereinafter also referred to as “the auxiliary raw material”) and the solubility of Reb. D were evaluated, and the auxiliary raw material with which the complex of the present invention can be obtained was examined. As the auxiliary raw material, raw materials described in the table below were selected from food additives that can be added to beverages. The raw materials used for forming the complex are as follows: Reb. D formulation (purity: 95% (w/w), manufactured by Jining Renewal and Joint International); D-allulose (purity: 99%+), arabinose (purity: 98%+), fructose (purity: 99%+), glucose (purity: 99%+), maltose monohydrate (purity: 95%+), mannitol (purity: 99%+), mannose (purity: 98%+), rhamnose (purity: 98%+), ribose (purity: 98%+), sucrose (purity: 99%+), xylitol (purity: 98%+) and xylose (purity: 98%+), trehalose dihydrate (purity: 98%+), sodium pantothenate (purity: 98%+) (each manufactured by NACALAI TESQUE, INC.); and erythritol (purity: 98% (w/w), manufactured by Mitsubishi-Chemical Foods Corporation). Also in the subsequent working examples, the raw materials described above were used unless otherwise stated.
The auxiliary raw material described in Table 1 was mixed with 100 mg of Reb. D formulation (purity: 95% (w/w)) in a heat-resistant vial, the temperature was elevated to the melting point of the auxiliary raw material or higher, and it was confirmed whether or not the auxiliary raw material was melted. After melting of the auxiliary raw material and dissolution of the Reb. D formulation were visually confirmed, the mixture was rapidly cooled in ice and stored at 10° C. The weight of the auxiliary raw material was adjusted based on the amount that enables dissolution of Reb. D. The weight of D-allulose (another name: D-psicose) was 2,000 mg, the weight of L-glutamine was 1,000 mg, the weight of vitamin D3 was 1,144 mg, and the weight of an auxiliary raw material other than those was 4,000 mg. The case where it was recognized that the auxiliary raw material was melted and that Reb. D was dissolved (including the case where dissolution was visually recognized more when compared to the point of adding (complete dissolution is not required)) was evaluated as “O”, and the case where it was not recognized that the auxiliary raw material was melted even at a temperature equal to or higher than the melting point of the auxiliary raw material, or the case where it was not recognized that Reb. D was dissolved though the auxiliary raw material was successfully melted (after the addition, change in outer appearance was not visually recognized) was evaluated as “X”.
With `O=C[C@H](O)[C@H](O)[C@H](O)CO` [Ribose], the Melting/dissolution result is reported as “◯”.

As to `OC[C@H]1O[C@@](CO)(O[C@H]2O[C@H](CO)[C@@H](O)[C@H](O)[C@H]2O)[C@@H](O)[C@@H]1O` [Sucrose], the Melting/dissolution result is reported as “◯”.

As for `OC[C@@H](O)[C@@H](O)[C@H](O)[C@H](O)CO` [Mannitol], the Melting/dissolution entry is “◯”.

As to `C[C@H](O)[C@H](O)[C@@H](O)[C@@H](O)C=O` [Rhamnose], the Melting/dissolution entry is “◯”.

In the case of `O=C(O)CC(O)C(=O)O` (racemic) [DL-malic acid], the Melting/dissolution entry is listed as “◯”.

For `O=C(CO)[C@H](O)[C@H](O)[C@H](O)CO` [D-allulose], the Melting/dissolution entry is on record as “◯”.

Regarding `O=C[C@H](O)[C@@H](O)[C@H](O)CO` [Xylose], the Melting/dissolution entry was “◯”.

Regarding `OC[C@@H](O)[C@@H](O)CO` [Erythritol], the Melting/dissolution result is recorded as “◯”.

Take `OC[C@@H](O)[C@H](O)[C@@H](O)CO` [Xylitol]: the Melting/dissolution result was “◯”.

For the molecule `NC(=O)CC[C@H](N)C(=O)O` [L-glutamine], the Melting/dissolution entry is “◯”.

As for `CC(C)(CO)[C@@H](O)C(=O)NCCC(=O)[O-].[Na+]` [Sodium pantothenate], the Melting/dissolution entry was “◯”.

`O=C(CO)[C@@H](O)[C@H](O)[C@H](O)CO` [Fructose]: the Melting/dissolution result is “◯”.

`OC[C@H]1O[C@H](O[C@H]2[C@H](O)[C@@H](O)C(O)O[C@@H]2CO)[C@H](O)[C@@H](O)[C@@H]1O` (mixture of isomers) [Maltose]: the Melting/dissolution entry is listed as “◯”.

For `OC[C@@H](O)[C@@H](O[C@H]1O[C@H](CO)[C@@H](O)[C@H](O)[C@H]1O)[C@H](O)[C@@H](O)CO` [Maltitol], the Melting/dissolution entry is “◯”.

As to `O=C[C@@H](O)[C@H](O)[C@H](O)CO` [Arabinose], the Melting/dissolution result is given as “◯”.

Still in this series, the particulars now being: auxiliary raw material mixed with 100 mg of Reb. D formulation, heated to melting point or higher, visual.
Turning to `C=C1CC[C@H](O)C/C1=C/C=C1\CCC[C@]2(C)[C@@H]([C@H](C)CCCC(C)C)CC[C@@H]12` [Vitamin D3], the Melting/dissolution entry is recorded as “◯”.

The next series relates to panelists trained about sensory attributes of sweeteners. As to the kind of experiment: Evaluation of flavor by trained panelists (Example Q). Particulars: 300 mg/L in terms of Reb. A or Reb. D; sucrose 9 SEV; 5 panelists; 0 to 6 points, sucrose control = 3. Format: in vivo. The procedure:
In order to confirm effects of the three-component complex of erythritol/Reb. D/fructose, evaluation of flavor was made. Reb. A and Reb. D were also used, and sucrose was used as a control. Each of a two-component complex and a three-component complex was prepared as a solid according to the method of the working example so that about 3.6% of Reb. D was contained. Each of the complexes or Reb. A was subjected to adjustment by adding water thereto in a manner such that the amount in terms of Reb. A or Reb. D became 300 mg/L. The concentration of the sucrose solution was adjusted to be 9 SEV (sucrose equivalent value). Evaluation of taste quality was made by panelists trained about sensory attributes of sweeteners (5 members). The respective items of evaluation of flavor (on-set speed, lingering sweet aftertaste, bitterness intensity, lingering bitter aftertaste and comprehensive evaluation) were scored in a range of 0 to 6 points. As a reference, sucrose alone was used as a control (3 points). 6 points means high on-set speed of sweetness, short lingering sweet aftertaste, low bitterness intensity, short lingering bitter aftertaste and satisfactory overall evaluation.
`OC[C@H]1O[C@@](CO)(O[C@H]2O[C@H](CO)[C@@H](O)[C@H](O)[C@H]2O)[C@@H](O)[C@@H]1O` [Sucrose] showed a Bitterness intensity of 3.00 points, a Comprehensive evaluation of 3.00 points, a Lingering bitter aftertaste of 3.00 points and a Lingering sweet aftertaste of 3.00 points. Further, the On-set speed was found to be 3.00 points.

Turning to `C=C1C[C@@]23CC[C@H]4[C@@](C)(CCC[C@@]4(C)C(=O)O[C@@H]4O[C@H](CO)[C@@H](O)[C@H](O)[C@H]4O)[C@@H]2CC[C@]1(O[C@@H]1O[C@H](CO)[C@@H](O)[C@H](O[C@@H]2O[C@H](CO)[C@@H](O)[C@H](O)[C@H]2O)[C@H]1O[C@@H]1O[C@H](CO)[C@@H](O)[C@H](O)[C@H]1O)C3` [Reb. A, rebaudioside A], the Bitterness intensity came out at 2.10 points, the Comprehensive evaluation amounted to 1.70 points, the Lingering bitter aftertaste amounted to 1.70 points and the Lingering sweet aftertaste is listed as 1.70 points. For the same molecule, the On-set speed worked out at 2.60 points.

In turn, `C=C1C[C@@]23CC[C@H]4[C@@](C)(CCC[C@@]4(C)C(=O)O[C@@H]4OC(CO)[C@@H](O)C(O)C4O[C@@H]4OC(CO)[C@@H](O)C(O)C4O)[C@@H]2CC[C@]1(O[C@@H]1OC(CO)[C@@H](O)C(O[C@@H]2OC(CO)[C@@H](O)C(O)C2O)C1O[C@@H]1OC(CO)[C@@H](O)C(O)C1O)C3` (some centres unmarked) [Reb. D, rebaudioside D] displayed a Bitterness intensity of 2.10 points, a Comprehensive evaluation of 2.20 points, a Lingering bitter aftertaste of 2.40 points and a Lingering sweet aftertaste of 2.50 points. The On-set speed is 2.40 points.

Test system in another series: not given
Experiment: not given
Format: physicochemical.
Details: not given
The source says:
In an embodiment of the present invention, the content of Reb. D in the complex is an amount equal to or less than the saturation solubility relative to the at least one compound selected from the carbohydrates and the water-soluble vitamins and the salts thereof. The saturation solubility means an amount (mg) with which Reb. D is no longer dissolved in a melt of 1 g of the at least one compound selected from the carbohydrates and the water-soluble vitamins and the salts thereof. The saturation solubility varies depending on the type of the compound and the temperature of the melt, but can be easily and accurately confirmed by actually forming a melt and dissolving Reb. D therein. For example, when forming a melt by using erythritol, 112 mg of Reb. D is dissolved in 1 g of erythritol at 190° C. (i.e., 112 mg/g).
Take `C=C1C[C@@]23CC[C@H]4[C@@](C)(CCC[C@@]4(C)C(=O)O[C@@H]4OC(CO)[C@@H](O)C(O)C4O[C@@H]4OC(CO)[C@@H](O)C(O)C4O)[C@@H]2CC[C@]1(O[C@@H]1OC(CO)[C@@H](O)C(O[C@@H]2OC(CO)[C@@H](O)C(O)C2O)C1O[C@@H]1OC(CO)[C@@H](O)C(O)C1O)C3` (some centres unmarked) [Reb. D, rebaudioside D]: the “saturation solubility of Reb. D in erythritol melt” value worked out at 112 mg/g.

Test system in a further series: not given
Experiment: not given
The conditions noted are these: times the sweetness of sugar / sucrose; cited from earlier work.
For the molecule `CC1=CC(=O)NS(=O)(=O)O1` [acesulfame potassium], the “sweetness relative to sugar (sucrose)” value is reported as “about 200 times”.

Consider `COC(=O)[C@H](Cc1ccccc1)NC(=O)[C@@H](N)CC(=O)O` [aspartame] (H-Asp-Phe-OMe), for which the “sweetness relative to sugar (sucrose)” value is listed as “about 180 times”.

As for `OC[C@H]1O[C@H](O[C@]2(CCl)O[C@H](CCl)[C@@H](O)[C@@H]2O)[C@H](O)[C@@H](O)[C@H]1Cl` [sucralose], the “sweetness relative to sugar (sucrose)” value is on record as “about 600 times”.

(Values after patent US12662504B2, “High-solubility rebaudioside D complex” (SUNTORY HOLDINGS LIMITED, priority 2019, dated 2026).)
